What was measured:
RPMI-8226 (leukemia) = assay: NCI 60-cell one-dose antiproliferative screen; format: cell-based, human; conditions: one dose 10 μM
PC-3 (prostate cancer) = assay: NCI 60-cell one-dose antiproliferative screen; format: cell-based, human; conditions: one dose 10 μM
MALME-3M (melanoma) = assay: NCI 60-cell one-dose antiproliferative screen; format: cell-based, human; conditions: one dose 10 μM
COLO-205 (colon cancer) = assay: NCI 60-cell one-dose antiproliferative screen; format: cell-based, human; conditions: one dose 10 μM
SF-539 (CNS cancer) = assay: NCI 60-cell one-dose antiproliferative screen; format: cell-based, human; conditions: one dose 10 μM
UACC-257 (melanoma) = assay: NCI 60-cell one-dose antiproliferative screen; format: cell-based, human; conditions: one dose 10 μM
SK-MEL-2 (melanoma) = assay: NCI 60-cell one-dose antiproliferative screen; format: cell-based, human; conditions: one dose 10 μM
786-0 (renal cancer) = assay: NCI 60-cell one-dose antiproliferative screen; format: cell-based, human; conditions: one dose 10 μM
DU-145 (prostate cancer) = assay: NCI 60-cell one-dose antiproliferative screen; format: cell-based, human; conditions: one dose 10 μM
T-47D (breast cancer) = assay: NCI 60-cell one-dose antiproliferative screen; format: cell-based, human; conditions: one dose 10 μM
LOX IMIV (melanoma) = assay: NCI 60-cell one-dose antiproliferative screen; format: cell-based, human; conditions: one dose 10 μM
SNB-19 (CNS cancer) = assay: NCI 60-cell one-dose antiproliferative screen; format: cell-based, human; conditions: one dose 10 μM
HCT-116 (colon cancer) = assay: NCI 60-cell one-dose antiproliferative screen; format: cell-based, human; conditions: one dose 10 μM
UO-31 (renal cancer) = assay: NCI 60-cell one-dose antiproliferative screen; format: cell-based, human; conditions: one dose 10 μM
HCC-2998 (colon cancer) = assay: NCI 60-cell one-dose antiproliferative screen; format: cell-based, human; conditions: one dose 10 μM
OVCAR-4 (ovarian cancer) = assay: NCI 60-cell one-dose antiproliferative screen; format: cell-based, human; conditions: one dose 10 μM
SF-295 (CNS cancer) = assay: NCI 60-cell one-dose antiproliferative screen; format: cell-based, human; conditions: one dose 10 μM
OVCAR-8 (ovarian cancer) = assay: NCI 60-cell one-dose antiproliferative screen; format: cell-based, human; conditions: one dose 10 μM
HOP-92 (NSC lung cancer) = assay: NCI 60-cell one-dose antiproliferative screen; format: cell-based, human; conditions: one dose 10 μM
TK-10 (renal cancer) = assay: NCI 60-cell one-dose antiproliferative screen; format: cell-based, human; conditions: one dose 10 μM
[1] = system: NCI-H322M (NSC lung cancer); assay: NCI 60-cell one-dose antiproliferative screen; format: cell-based, human; conditions: one dose 10 μM
A498 (renal cancer) = assay: NCI 60-cell one-dose antiproliferative screen; format: cell-based, human; conditions: one dose 10 μM
OVCAR-5 (ovarian cancer) = assay: NCI 60-cell one-dose antiproliferative screen; format: cell-based, human; conditions: one dose 10 μM
M14 (melanoma) = assay: NCI 60-cell one-dose antiproliferative screen; format: cell-based, human; conditions: one dose 10 μM
ACHN (renal cancer) = assay: NCI 60-cell one-dose antiproliferative screen; format: cell-based, human; conditions: one dose 10 μM
[2] = system: NCI-H522 (NSC lung cancer); assay: NCI 60-cell one-dose antiproliferative screen; format: cell-based, human; conditions: one dose 10 μM
MCF7 (breast cancer) = assay: NCI 60-cell one-dose antiproliferative screen; format: cell-based, human; conditions: one dose 10 μM
[3] = system: NCI/ADR-RES (ovarian cancer); assay: NCI 60-cell one-dose antiproliferative screen; format: cell-based, human; conditions: one dose 10 μM
HS 578T (breast cancer) = assay: NCI 60-cell one-dose antiproliferative screen; format: cell-based, human; conditions: one dose 10 μM
SF-268 (CNS cancer) = assay: NCI 60-cell one-dose antiproliferative screen; format: cell-based, human; conditions: one dose 10 μM
[4] = system: 60 human tumor cell lines; assay: NCI 60-cell one-dose antiproliferative screen, whole panel; format: cell-based; conditions: Homo sapiens, 60 cell, read-out: Mean inhibition (mean GI%)
RXF 393 (renal cancer) = assay: NCI 60-cell one-dose antiproliferative screen; format: cell-based, human; conditions: one dose 10 μM
CAKI-1 (renal cancer) = assay: NCI 60-cell one-dose antiproliferative screen; format: cell-based, human; conditions: one dose 10 μM
CCRF-CEM (leukemia) = assay: NCI 60-cell one-dose antiproliferative screen; format: cell-based, human; conditions: one dose 10 μM
SNB-75 (CNS cancer) = assay: NCI 60-cell one-dose antiproliferative screen; format: cell-based, human; conditions: one dose 10 μM
SW-620 (colon cancer) = assay: NCI 60-cell one-dose antiproliferative screen; format: cell-based, human; conditions: one dose 10 μM
EKVX (NSC lung cancer) = assay: NCI 60-cell one-dose antiproliferative screen; format: cell-based, human; conditions: one dose 10 μM
OVCAR-3 (ovarian cancer) = assay: NCI 60-cell one-dose antiproliferative screen; format: cell-based, human; conditions: one dose 10 μM
[5] = system: MDA-MB-231/ATCC (breast cancer); assay: NCI 60-cell one-dose antiproliferative screen; format: cell-based, human; conditions: one dose 10 μM
[6] = system: MDA-MB-468 (breast cancer); assay: NCI 60-cell one-dose antiproliferative screen; format: cell-based, human; conditions: one dose 10 μM
[7] = system: NCI-H23 (NSC lung cancer); assay: NCI 60-cell one-dose antiproliferative screen; format: cell-based, human; conditions: one dose 10 μM
HOP-62 (NSC lung cancer) = assay: NCI 60-cell one-dose antiproliferative screen; format: cell-based, human; conditions: one dose 10 μM
[8] = system: NCI-H226 (NSC lung cancer); assay: NCI 60-cell one-dose antiproliferative screen; format: cell-based, human; conditions: one dose 10 μM
SK-OV-3 (ovarian cancer) = assay: NCI 60-cell one-dose antiproliferative screen; format: cell-based, human; conditions: one dose 10 μM
U251 (CNS cancer) = assay: NCI 60-cell one-dose antiproliferative screen; format: cell-based, human; conditions: one dose 10 μM
HT29 (colon cancer) = assay: NCI 60-cell one-dose antiproliferative screen; format: cell-based, human; conditions: one dose 10 μM
IGROV1 (ovarian cancer) = assay: NCI 60-cell one-dose antiproliferative screen; format: cell-based, human; conditions: one dose 10 μM
SN12C (renal cancer) = assay: NCI 60-cell one-dose antiproliferative screen; format: cell-based, human; conditions: one dose 10 μM
UACC-62 (melanoma) = assay: NCI 60-cell one-dose antiproliferative screen; format: cell-based, human; conditions: one dose 10 μM
MDA-MB-435 (melanoma) = assay: NCI 60-cell one-dose antiproliferative screen; format: cell-based, human; conditions: one dose 10 μM
[9] = system: NCI-H460 (NSC lung cancer); assay: NCI 60-cell one-dose antiproliferative screen; format: cell-based, human; conditions: one dose 10 μM
SK-MEL-28 (melanoma) = assay: NCI 60-cell one-dose antiproliferative screen; format: cell-based, human; conditions: one dose 10 μM
KM12 (colon cancer) = assay: NCI 60-cell one-dose antiproliferative screen; format: cell-based, human; conditions: one dose 10 μM
[10] = system: A549/ATCC (NSC lung cancer); assay: NCI 60-cell one-dose antiproliferative screen; format: cell-based, human; conditions: one dose 10 μM
HCT-15 (colon cancer) = assay: NCI 60-cell one-dose antiproliferative screen; format: cell-based, human; conditions: one dose 10 μM

Cc1ccc(-c2nnc3ccc(NN=Cc4ccccc4)nn23)cc1 [Compound 4d, 6-(2-Benzylidenehydrazinyl)-3-(p-tolyl)-[1,2,4]triazolo[4,3-b]pyridazine]
GI% (RPMI-8226 (leukemia)): 19.37% | GI% (PC-3 (prostate cancer)): — (— GI% is below 15%) | GI% (MALME-3M (melanoma)): — (— GI% is below 15%) | GI% (COLO-205 (colon cancer)): — (— GI% is below 15%) | GI% (SF-539 (CNS cancer)): 19.19% | GI% (UACC-257 (melanoma)): — (— GI% is below 15%) | GI% (SK-MEL-2 (melanoma)): — (— GI% is below 15%) | GI% (786-0 (renal cancer)): — (— GI% is below 15%) | GI% (DU-145 (prostate cancer)): 24.06% | GI% (T-47D (breast cancer)): — (— GI% is below 15%) | GI% (LOX IMIV (melanoma)): 52.47% | GI% (SNB-19 (CNS cancer)): — (— GI% is below 15%) | GI% (HCT-116 (colon cancer)): — (— GI% is below 15%) | GI% (UO-31 (renal cancer)): 15.52% | GI% (HCC-2998 (colon cancer)): — (— GI% is below 15%) | GI% (OVCAR-4 (ovarian cancer)): 30.86% | GI% (SF-295 (CNS cancer)): 47.66% | GI% (OVCAR-8 (ovarian cancer)): — (— GI% is below 15%) | GI% (HOP-92 (NSC lung cancer)): 29.46% | GI% (TK-10 (renal cancer)): — (— GI% is below 15%) | GI% [1]: — (— GI% is below 15%) | GI% (A498 (renal cancer)): — (— GI% is below 15%) | GI% (OVCAR-5 (ovarian cancer)): — (— GI% is below 15%) | GI% (M14 (melanoma)): 32.66% | GI% (ACHN (renal cancer)): — (— GI% is below 15%) | GI% [2]: — (— GI% is below 15%) | GI% (MCF7 (breast cancer)): 52.06% | GI% [3]: 15.93% | GI% (HS 578T (breast cancer)): 53.45% | GI% (SF-268 (CNS cancer)): 42.23% | inhibition at 10 µM [4]: 18.3% | GI% (RXF 393 (renal cancer)): — (— GI% is below 15%) | GI% (CAKI-1 (renal cancer)): 16.69% | GI% (CCRF-CEM (leukemia)): — (— GI% is below 15%) | GI% (SNB-75 (CNS cancer)): >100% | GI% (SW-620 (colon cancer)): — (— GI% is below 15%) | GI% (EKVX (NSC lung cancer)): 23.07% | GI% (OVCAR-3 (ovarian cancer)): 69.65% | GI% [5]: — (— GI% is below 15%) | GI% [6]: — (— GI% is below 15%) | GI% [7]: 39.55% | GI% (HOP-62 (NSC lung cancer)): — (— GI% is below 15%) | GI% [8]: — (— GI% is below 15%) | GI% (SK-OV-3 (ovarian cancer)): — (— GI% is below 15%) | GI% (U251 (CNS cancer)): 24.9% | GI% (HT29 (colon cancer)): — (— GI% is below 15%) | GI% (IGROV1 (ovarian cancer)): — (— GI% is below 15%) | GI% (SN12C (renal cancer)): — (— GI% is below 15%) | GI% (UACC-62 (melanoma)): — (— GI% is below 15%) | GI% (MDA-MB-435 (melanoma)): 23.87% | GI% [9]: 31.51% | GI% (SK-MEL-28 (melanoma)): — (— GI% is below 15%) | GI% (KM12 (colon cancer)): 42.77% | GI% [10]: — (— GI% is below 15%) | GI% (HCT-15 (colon cancer)): 30.81%
